Test results reported in patent US20240042051A1, “MCL-1 INHIBITOR ANTIBODY-DRUG CONJUGATES AND METHODS OF USE” (Novartis AG, priority 2020, published 2024).

Key:
KMS27 xenografts = assay: KMS27 multiple myeloma xenograft, tumor growth inhibition and delay; type: in vivo, NSG mice; conditions: 50 mg/kg QD3, PO, single agent
Protocol: The in vivo therapeutic effect of two CD48-targeting MCL-1 ADCs formulated in Phosphate-Buffered Saline (PBS) was determined in KMS27 multiple myeloma model after intravenous (IV) administration.
KMS27 cells, obtained from JCRB, were cultured in RPMI supplemented with 10% FBS. Cells were resuspended in 50% matrigel (BD Biosciences) and 0.1 ml containing 10×10^6 cells were subcutaneously inoculated into the right flank of female NSG mice, provided by Jax. When tumors reached the appropriate volume, mice were randomized, 6 animals per group, using Easy stat software. Anti-CD48 NY920_CysmAb Fc silent, anti-CD48 NY938_CysmAb Fc silent, anti-CD48 NY920_CysmAb Fc silent_L42-P1 and anti-CD48 NY938_CysmAb Fc silent_L42-P1 (2.5 and/or 5 mg/kg) were injected once IV in PBS in combination with ABT-199 (50 mg/kg, PO for 3 consecutive days=QD3 in PEG/ethanol/phosal). Mice body weight was monitored three times a week and tumor size measured using electronic calipers. Tumor volume was estimated by measuring the minimum and maximum tumor diameters using the formula: (minimum diameter)^2 (maximum diameter)/2. […]
With DTV (Delta Tumor Volume) at Dx, calculated being TV at Dx-TV at Randomization. Tumor Growth Delay (TGD) was calculated as the number of days required for the median tumor volume in each group to reach back the starting tumor volume (at randomization). […]

KMS-21-BM xenografts = assay: KMS-21-BM multiple myeloma xenograft, tumor growth inhibition and delay; type: in vivo, NSG mice; conditions: 0.5 mg/kg QD, single agent
Protocol: The in vivo therapeutic effect of a CD48-targeting MCL-1 ADC formulated in Phosphate-Buffered Saline (PBS) was determined in KMS-21-BM multiple myeloma model after intravenous (IV) administration.
KMS-21-BM cells, obtained from JCRB, were cultured in RPMI supplemented with 10% FBS. Cells were resuspended in 100% matrigel (BD Biosciences) and 0.1 ml containing 10×10^6 cells were subcutaneously inoculated into the right flank of female NSG mice, provided by Jax. When tumors reached the appropriate volume, mice were randomized, 6 animals per group, using Easy stat software. IgG1-Linker-Payload Fc WT, anti-CD48 NY920_CysmAb Fc WT, anti-CD48 NY920_CysmAb Fc WT_L42-P1 (10 and/or 30 mg/kg) and Bortezomib (0.5 mg/kg) were injected, alone or in combination, once IV in PBS and NaCl 0.9%, respectively. Mice body weight was monitored three times a week and tumor size measured using electronic calipers. Tumor volume was estimated by measuring the minimum and maximum tumor diameters using the formula: (minimum diameter)^2 (maximum diameter)/2. Tumor growth inhibition on day 21 was calculated using the formula: […]
With DTV (Delta Tumor Volume) at Dx, calculated being TV at Dx−TV at Randomization. Tumor Growth Delay (TGD) was calculated as the number of days required for the median tumor volume in each group to reach 500 mm^3. […]

KMS-21-BM = assay: CellTiter-Glo proliferation assay (Example 7); type: cell-based; conditions: 5 days
Protocol: (§1) The CD48 MCL-1 antibody drug conjugates were tested against three endogenous cancer cell lines: NCI-H929 (ATCC No. CRL-9068 cultured in RPMI-1640+10% FBS+0.05 mM 2-mercaptoethanol), KMS-21 BM (JCRB No. JCRB1185 cultured in RPMI-1640+10% FBS) and KMS-27 (JCRB No. JCRB1188 cultured in RPMI-1640+10% FBS).
(§2) The ability of the MCL-1 antibody drug conjugates to inhibit cell proliferation and survival was assessed using the Promega CellTiter-Glo® proliferation assay. ADCs were generated generally as described in Example 6. Cell lines were cultured in media that is optimal for their growth at 5% CO2, 37° C. in a tissue culture incubator. Prior to seeding for the proliferation assay, the cells were split at least 2 days before the assay to ensure optimal growth density. On the day of seeding, cell viability and cell density were determined using a cell counter (Vi-Cell XR Cell Viability Analyzer, Beckman Coulter). Cells with higher than 85% viability were seeded in white clear bottom 384-well TC treated plates (Corning cat. #3765). Cells were seeded at a density of 1,000 cells per well in 45 μL of standard growth media. Plates were incubated at 5% CO2, 37° C. overnight in a tissue culture incubator. The next day, free MCL-1 payload (P1), targeting MCL-1 ADCs, and non-targeting isotype (IgG) ADCs were prepared at 10× in standard growth media. The prepared MCL-1 payload (P1) treatment was then added to the cells resulting in final concentrations of 0.005-100 nM and a final volume of 50 uL per well. The prepared CD48 targeting and isotype matched non-targeting control ADC treatments were added to the cells resulting in final concentrations of 0.015-300 nM and a final volume of 50 uL per well. Each drug concentration was tested in quadruplets. Plates were incubated at 5% CO2, 37° C. for 5 days in a tissue culture incubator, after which cell viability was assessed through the addition of 25 μL of CellTiter Glo® (Promega, cat #G7573), a reagent which lyses cells and measures total adenosine triphosphate (ATP) content. Plates were incubated at room temperature for 10 minutes to stabilize luminescent signals prior to reading using a luminescence reader (EnVision Multilabel Plate Reader, PerkinElmer). To evaluate the effect of the drug treatments, luminescent counts from wells containing untreated cells (100% viability) were used to normalize treated samples. A variable slope model was applied to fit a nonlinear regression curve to the data in GraphPad PRISM version 7.02 software. IC50 and Amax values were extrapolated from the resultant curves.

NCI-H929 = assay: CellTiter-Glo proliferation assay (Example 7); type: cell-based; conditions: 5 days
Protocol: as §1, §2

KMS-27 = assay: CellTiter-Glo proliferation assay (Example 7); type: cell-based; conditions: 5 days
Protocol: as §1, §2

[1] = system: NCI-H929, KMS-21 BM and KMS-27 cancer cell lines; assay: CellTiter-Glo proliferation assay (Example 7), summary over cell lines; type: cell-based; conditions: read-out: IC50 values, range over representative cancer cell lines
Protocol: as §1
The ability of the MCL-1 antibody drug conjugates to inhibit cell proliferation and survival was assessed using the Promega CellTiter-Glo® proliferation assay. ADCs were generated generally as described in Example 6. Cell lines were cultured in media that is optimal for their growth at 5% CO2, 37° C. in a tissue culture incubator. Prior to seeding for the proliferation assay, the cells were split at least 2 days before the assay to ensure optimal growth density. On the day of seeding, cell viability and cell density were determined using a cell counter (Vi-Cell XR Cell Viability Analyzer, Beckman Coulter). […] Plates were incubated at 5% CO2, 37° C. for 5 days in a tissue culture incubator, after which cell viability was assessed through the addition of 25 μL of CellTiter Glo® (Promega, cat #G7573), a reagent which lyses cells and measures total adenosine triphosphate (ATP) content. Plates were incubated at room temperature for 10 minutes to stabilize luminescent signals prior to reading using a luminescence reader (EnVision Multilabel Plate Reader, PerkinElmer). […]

CC1(C)CCC(CN2CCN(c3ccc(C(=O)NS(=O)(=O)c4ccc(NCC5CCOCC5)c([N+](=O)[O-])c4)c(Oc4cnc5[nH]ccc5c4)c3)CC2)=C(c2ccc(Cl)cc2)C1 [ABT-199, venetoclax]
% TGI (d4) (KMS27 xenografts): 120.82% | TGD (KMS27 xenografts; to reach back starting tumor volume): 6.27 days

CC(C)C[C@H](NC(=O)[C@H](Cc1ccccc1)NC(=O)c1cnccn1)B(O)O [Bortezomib]
% TGI (d21) (KMS-21-BM xenografts; IV (once)): 88.09% | TGD (KMS-21-BM xenografts; IV, median tumor volume to reach 500 mm^3): 42.53 days

COc1ccccc1-c1nccc(COc2ccccc2C[C@@H](Oc2ncnc3sc(-c4ccc(F)cc4)c(-c4ccc(OCCN5CCN(C)CC5)c(Cl)c4C)c23)C(=O)O)n1 [P1, (2R)-2-[5-[3-chloro-2-methyl-4-[2-(4-methylpiperazin-1-yl)ethoxy]phenyl]-6-(4-fluorophenyl)thieno[2,3-d]pyrimidin-4-yl]oxy-3-[2-[[2-(2-methoxyphenyl)pyrimidin-4-yl]methoxy]phenyl]propanoic acid]
IC50 (KMS-21-BM; 120 h): 1.16 nM | Amax (Span) (KMS-21-BM): 100.9 | Amax (Span) (NCI-H929): 110.3 | IC50 (NCI-H929; Homo sapiens, 120 h): 4.73 nM | IC50 (KMS-27; 120 h): 11.2 nM | Amax (Span) (KMS-27): 99 | IC50 [1]: 1.16 to 11.2 nM
